What was measured:
[1] = molecular target: T1, histamine H4 receptor (Homo sapiens, UniProt Q9H3N8); experiment: [3H]-histamine competition binding assay, membranes of HEK-293 cells transiently transfected with histamine H4 receptor; settings: Ki by Cheng-Prusoff equation; HEK-293 membranes, 25° C., 1 hour, pH 7.4; read-out: Potency (nM), displacement of 3H-histamine
T1 construct: expressed in transfected cells
Protocol: In this assay, membranes were prepared from HEK-293 cells transiently transfected with the pCINeo expression vector harboring the histamine H4 receptor by homogenization of the cells on ice in TE buffer (50 mM Tris-HCl buffer, pH 7.4, containing 5 mM EDTA), 1 mM benzamidine, 2 μg/ml aprotinin, […] leupeptin, and 1 μg/ml pepstatin. The homogenate was centrifuged at 40,000 g for 20 minutes at 4° C. This step was repeated, and the resulting pellet was resuspended in TE buffer. Aliquots were frozen at −70° C. until needed. On the day of assay, membranes were thawed and diluted with TE buffer. Competition radioligand binding assays were performed with increasing concentrations of test compound in the presence of [^3H]-histamine incubated at 25° C. for 1 hour in a total volume of 0.5 mL of 50 mM Tris, 5 mM EDTA, pH 7.4. All binding reactions were terminated by filtration under vacuum onto polyethylenimine (0.3%) presoaked Unifilters (PerkinElmer Life Sciences) or Whatman GF/B filters (Whatman, Clifton, N.J.), followed by three brief washes with 4 ml of ice-cold TE buffer. Bound radiolabel was determined by liquid scintillation counting. For all of the radioligand competition binding assays, IC50 values and Hill slopes were determined by Hill transformation of the data, and Ki values were determined by the Cheng-Prusoff equation.

[2] = molecular target: T1, histamine H4 receptor; experiment: In vitro histamine H4 potency in FLIPR (Ca2+ flux, Fluo-4) in HEK-293 cells coexpressing Gαqi5; type: cell-based; settings: Kb values for antagonists and inverse agonists, EC50 values for partial agonists; HEK-293 cells with Gαqi5, Fluo-4
Description: There are many methods available to show the effectiveness of compounds as histamine H4 receptor ligands. Histamine H4 receptors from mammalian species have been cloned. Methods to clone, express, and assess the potency and functional activity of such cloned genes are well known to those skilled in the art of molecular biology. […] Before testing, cells are loaded with a Ca^+2 sensitive fluorescent dye, in this case Fluo-4. In the case of partial agonist or agonist ligands, addition of compound to the cells leads to the increase in intracellular Ca^+2, which is detected by FLIPR (Fluorescence Imaging Plate Reader; Molecular Devices, Sunnyvale, Calif.) technology. […] The fluorescence intensities measured before addition of the test compound are subtracted from the fluorescence intensities at later time points. Peak response values determined at each concentration of ligand are expressed as a percentage of the response obtained with the full agonist histamine. Concentration versus response data are analyzed to obtain compound potency as Kb values for antagonists and inverse agonists and as EC50 values for partial agonists.

T1 sequence (Q9H3N8 whole entry, species assumed): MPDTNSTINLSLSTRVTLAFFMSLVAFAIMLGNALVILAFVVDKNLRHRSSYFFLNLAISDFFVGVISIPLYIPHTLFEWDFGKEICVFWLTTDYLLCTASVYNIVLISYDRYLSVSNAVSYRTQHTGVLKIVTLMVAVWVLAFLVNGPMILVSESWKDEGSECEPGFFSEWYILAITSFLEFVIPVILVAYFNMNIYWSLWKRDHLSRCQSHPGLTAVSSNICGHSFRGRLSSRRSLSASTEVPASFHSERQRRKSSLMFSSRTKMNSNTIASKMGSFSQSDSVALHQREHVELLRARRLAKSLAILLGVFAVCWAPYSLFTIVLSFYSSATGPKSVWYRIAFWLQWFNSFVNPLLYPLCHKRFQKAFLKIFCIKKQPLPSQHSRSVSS

| SMILES | Ki [1] [nM] | Potency (nM), in vitro histamine H4 potency in FLIPR [2] [nM] |
| --- | --- | --- |
| CN[C@@H]1CCN(c2nc(N)nc3c2CCCC32CCCC2)C1 [Example 1, (R)-4′-(3-(methylamino)pyrrolidin-1-yl)-6′,7′-dihydro-5′H-spiro[cyclopentane-1,8′-quinazolin]-2′-amine] | 2.6 | 2.9 |
| Nc1nc(N2CCNCC2)c2c(n1)C1(CCCC1)CCC2 [Example 2, 4′-(piperazin-1-yl)-6′,7′-dihydro-5′H-spiro[cyclopentane-1,8′-quinazolin]-2′-amine] | 1.1 | 2.8 |
| CNC1CN(c2nc(N)nc3c2CCCC32CCCC2)C1 [Example 3, 4′-(3-(methylamino)azetidin-1-yl)-6′,7′-dihydro-5′H-spiro[cyclopentane-1,8′-quinazolin]-2′-amine] | 1.4 | 4.6 |
| Nc1nc(N2CC[C@@H](N)C2)c2c(n1)C1(CCCC1)CCC2 [Example 4, (R)-4′-(3-aminopyrrolidin-1-yl)-6′,7′-dihydro-5′H-spiro[cyclopentane-1,8′-quinazolin]-2′-amine] | 4.6 | 2.7 |
| Nc1nc(N2CC[C@H](N)C2)c2c(n1)C1(CCCC1)CCC2 [Example 5, (S)-4′-(3-aminopyrrolidin-1-yl)-6′,7′-dihydro-5′H-spiro[cyclopentane-1,8′-quinazolin]-2′-amine] | – | 53 |
| Nc1nc(N2CC[C@@H]3CNC[C@@H]32)c2c(n1)C1(CCCC1)CCC2 [Example 6, 4′-((3aR,6aR)-hexahydropyrrolo[3,4-b]pyrrol-1(2H)-yl)-6′,7′-dihydro-5′H-spiro[cyclopentane-1,8′-quinazolin]-2′-amine] | – | 1097 |
| Nc1nc(N2CC[C@H]3CNC[C@H]32)c2c(n1)C1(CCCC1)CCC2 [Example 7, 4′-((3aS,6aS)-hexahydropyrrolo[3,4-b]pyrrol-1(2H)-yl)-6′,7′-dihydro-5′H-spiro[cyclopentane-1,8′-quinazolin]-2′-amine] | – | 1027 |
| Nc1nc(N2CCCNCC2)c2c(n1)C1(CCCC1)CCC2 [Example 8, 4′-(1,4-diazepan-1-yl)-6′,7′-dihydro-5′H-spiro[cyclopentane-1,8′-quinazolin]-2′-amine] | 2.8 | 9.8 |
| Nc1nc(N2C[C@H]3CCCN[C@H]3C2)c2c(n1)C1(CCCC1)CCC2 [Example 9, 4′-((4aR,7aR)-tetrahydro-1H-pyrrolo[3,4-b]pyridin-6(2H,7H,7aH)-yl)-6′,7′-dihydro-5′H-spiro[cyclopentane-1,8′-quinazolin]-2′-amine] | 3.4 | 8.5 |
| CN1CCC(Nc2nc(N)nc3c2CCCC32CCCC2)CC1 [Example 10, N4′-(1-methylpiperidin-4-yl)-6′,7′-dihydro-5′H-spiro[cyclopentane-1,8′-quinazoline]-2′,4′-diamine] | – | 22 |
| COC(=O)C1(N)CCN(c2nc(N)nc3c2CCCC32CCCC2)CC1 [Example 11, Methyl 4-amino-1-(2′-amino-6′,7′-dihydro-5′H-spiro[cyclopentane-1,8′-quinazoline]-4′-yl)piperidine-4-carboxylate] | – | 12624 |
| Nc1nc(N2CCC(N)(C(=O)O)CC2)c2c(n1)C1(CCCC1)CCC2 [Example 12, 4-amino-1-(2′-amino-6′,7′-dihydro-5′H-spiro[cyclopentane-1,8′-quinazoline]-4′-yl)piperidine-4-carboxylic Acid] | – | 21251 |
| Nc1nc(N2CC(N)C2)c2c(n1)C1(CCCC1)CCC2 [Example 13, 4′-(3-aminoazetidin-1-yl)-6′,7′-dihydro-5′H-spiro[cyclopentane-1,8′-quinazolin]-2′-amine] | – | 68851 |
| CN(C)CCOc1nc(N)nc2c1CCCC21CCCC1 [Example 14, 4′-(2-(dimethylamino)ethoxy)-6′,7′-dihydro-5′H-spiro[cyclopentane-1,8′-quinazolin]-2′-amine] | – | 7.8 |
| CN1CC[C@@H](Oc2nc(N)nc3c2CCCC32CCCC2)C1 [Example 15, (R)-4′-(1-methylpyrrolidin-3-yloxy)-6′,7′-dihydro-5′H-spiro[cyclopentane-1,8′-quinazolin]-2′-amine] | – | 20 |
| Nc1nc(N2CCNCC2)c2c(n1)C1(CCCCC1)CCCC2 [Example 16, 4-(piperazin-1-yl)-5,6,7,8-tetrahydrospiro[cyclohepta[d]pyrimidine-9,1′-cyclohexan]-2-amine] | 9.3 | 48 |
| Nc1nc(N2CC[C@@H](N)C2)c2c(n1)C1(CCCCC1)CCCC2 [Example 17, (R)-4-(3-aminopyrrolidin-1-yl)-5,6,7,8-tetrahydrospiro[cyclohepta[d]pyrimidine-9,1′-cyclohexan]-2-amine] | 18 | 47 |
| Nc1nc(N2C[C@H]3CCCN[C@H]3C2)c2c(n1)C1(CCCCC1)CCCC2 [Example 18, 4-((4aR,7aR)-tetrahydro-1H-pyrrolo[3,4-b]pyridin-6(2H,7H,7aH)-yl)-5,6,7,8-tetrahydrospiro[cyclohepta[d]pyrimidine-9,1′-cyclohexan]-2-amine] | – | 99 |
| Nc1nc(N2CCNCC2)c2c(n1)C1(CCCC2)Cc2ccccc2C1 [Example 19, 4-(piperazin-1-yl)-1′,3′,5,6,7,8-hexahydrospiro[cyclohepta[d]pyrimidine-9,2′-inden]-2-amine] | – | 26915 |
| Nc1nc(N2CC[C@@H](N)C2)c2c(n1)C1(CCCC2)Cc2ccccc2C1 [Example 20, (R)-4-(3-aminopyrrolidin-1-yl)-1′,3′,5,6,7,8-hexahydrospiro[cyclohepta[d]pyrimidine-9,2′-inden]-2-amine] | – | 499 |
